Results published in ChEMBL document CHEMBL1201862, “PubChem BioAssay data set” (2004).
Activity calls are given as the source filed them.

Experiments:
cells [1] = type: functional, cell-based
[2] = molecular target: T1, Trace amine-associated receptor 1 (Homo sapiens, UniProt Q96RJ0); experiment: Fluorescence-based cell-based high throughput dose response assay to identify agonists of the human trace amine associated receptor 1 (TAAR1).; type: functional
T1 sequence (Q96RJ0 whole entry): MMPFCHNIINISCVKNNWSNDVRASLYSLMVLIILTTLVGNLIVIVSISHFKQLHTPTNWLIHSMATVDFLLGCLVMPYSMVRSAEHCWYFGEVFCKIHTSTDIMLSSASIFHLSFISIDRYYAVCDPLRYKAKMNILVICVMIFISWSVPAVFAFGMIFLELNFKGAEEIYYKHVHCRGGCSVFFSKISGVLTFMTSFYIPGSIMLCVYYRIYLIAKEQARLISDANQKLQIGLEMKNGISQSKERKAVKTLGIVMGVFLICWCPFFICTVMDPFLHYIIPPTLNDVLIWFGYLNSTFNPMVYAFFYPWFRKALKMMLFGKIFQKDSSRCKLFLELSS

[3] = molecular target: T1, Trace amine-associated receptor 1; experiment: Counterscreen for agonists of the human trace amine associated receptor 1 (hTAAR1): Fluorescence-based cell-based high throughput dose response assay to identify hTAAR1 agonist that also desensitize TAAR1 receptor response.; type: functional
cells [4] = type: functional, cell-based; remark: listed apart in the source
[5] = molecular target: Fructose-bisphosphate aldolase (Mycobacterium tuberculosis, UniProt P9WQA3); experiment: Fluorescence-based biochemical high throughput dose response assay for inhibitors of the fructose-bisphosphate aldolase (FBA) of M. tuberculosis.; type: functional
[6] = NIH-3T3 fibroblast cytotoxicity, dose response, cytotoxicity control, cell-based, fluorescence, Alamar Blue, secondary assay (AID 2327); type: functional;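 note: NIH-3T3 mouse fibroblasts cultured with fluconazole at 8 µg/mL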
[7] = fluconazole-exposed Candida albicans growth modulators – fluorescence, retest, confirmation (AID 2467); type: functional, cell-based
[8] = Trypanosoma cruzi growth suppression in host cells – NIH3T3 host cells, beta-gal luminescence, confirmation (AID 2044); type: functional, cell-based;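 note: intracellular parasites grown in NIH/3T3 mouse fibroblasts as host cells; luminescent beta-galactosidase reporter signal from transgenic T. cruzi replicating inside host cells; inhibitors lower the luminescence signal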
[9] = NIH3T3 cell viability loss – ATP luminescence, mouse fibroblasts, counter-screen, dose response (AID 2010); type: functional, cell-based;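 note: cells exposed to compound for about 90 hours before reading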
[10] = HEK-293T cell viability reduction – luminescence, B-cell screen hits, cytotoxicity control for BCR NF-kB inhibitor project, dose response (AID 489021); type: functional, cell-based;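 note: HEK-293T cells carrying an NF-kB luciferase reporter; cells exposed to compound for about 14 hours before viability readout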
INS1 = experiment: INS-1E survival protection against cytokine death – cell-based, luminescence, retest, dose response (AID 449756); type: functional; details: Rattus norvegicus;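 note: cell death triggered by IL-1 beta plus TNF-alpha plus IFN-gamma mixture; protective hits raise ATP signal compared with cytokine alone wells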
[11] = molecular target: COUP transcription factor 2 (Homo sapiens, UniProt P24468); experiment: Luminescence-based cell-based high throughput dose response assay to identify inhibitors of COUP-TFII (NR2F2).; type: functional;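 note: HEK293 cells transiently cotransfected with COUP-TFII expression vector and reporter; luciferase reporter luminescence driven by COUP-TFII from the pX2-168 reporter plasmid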
cells [12] = type: functional, cell-based; remark: listed apart in the source
[13] = molecular target: Nuclear receptor subfamily 0 group B member 1 (Homo sapiens, UniProt P51843); type: functional, cell-based;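 note: HEK293T cells transfected with SF-1 and DAX-1 plus StAR promoter luciferase reporter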
Major prion protein = Major prion protein (Homo sapiens, UniProt P04156); type: functional, cell-based
cells [14] = experiment: cells
[15] = viability of PTEN-deleted HCT116 cells – cell-based, HCT116 PTEN knockout, dose response (AID 1047); type: functional;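 note: HCT116 colon tumor cells with PTEN knocked out; cells exposed to compound for 60 hours before readout; potency for loss of cell viability measured by luminescence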
[16] = viability of HCT116 lacking mutant beta-catenin – cell-based, human colon tumor, dose response (AID 1045); type: functional;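 note: HCT116 colon tumor cells with beta catenin knocked out; cells exposed to compound for 60 hours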
[17] = molecular target: T2, Ubiquitin-conjugating enzyme E2 N (Homo sapiens, UniProt P61088); type: functional;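 note: Dose-response confirmation in a TR-FRET assay detecting UBC13-driven polyubiquitin chain formation, inhibition measured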
T2 sequence (P61088 whole entry): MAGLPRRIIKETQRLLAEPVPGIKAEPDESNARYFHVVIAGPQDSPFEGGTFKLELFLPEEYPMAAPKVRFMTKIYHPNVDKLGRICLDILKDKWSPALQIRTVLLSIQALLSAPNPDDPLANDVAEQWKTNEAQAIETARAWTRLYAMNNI

[18] = viability loss in HEK293T cells – cell-based, cherry-picks, cytotoxicity control for HIV Vif inhibitor project, dose response (AID 652208); type: functional
Galanin receptor type 3 = Galanin receptor type 3 (Homo sapiens, UniProt O60755); experiment: Fluorescence-based cell-based primary high throughput dose response assay to identify antagonists of the Galanin Receptor 3 (GalR3).; type: functional
cells [19] = type: functional, cell-based; details: HEK-CNG
[20] = Counterscreen for […] of the human trace amine associated receptor 1 (TAAR1): Fluorescence-based cell-based high throughput dose response assay to identify nonselective Ga16 agonists.; type: functional
[21] = Counterscreen for antagonists of the human trace amine associated receptor 1 (hTAAR1): Fluorescence-based cell-based high throughput dose response assay to identify nonselective Ga16 antagonists.; type: functional
[22] = molecular target: T3, RNA-binding protein pos-1 (Caenorhabditis elegans, UniProt G5EF15); experiment: disruptors of C. elegans POS-1 RNA interaction – biochemical, fluorescence polarization, dose response (AID 1964);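 note: purified POS-1 fused to maltose binding protein made in E. coli; potency of compounds blocking POS-1 binding to fluorescent RNA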
T3 sequence (G5EF15 whole entry): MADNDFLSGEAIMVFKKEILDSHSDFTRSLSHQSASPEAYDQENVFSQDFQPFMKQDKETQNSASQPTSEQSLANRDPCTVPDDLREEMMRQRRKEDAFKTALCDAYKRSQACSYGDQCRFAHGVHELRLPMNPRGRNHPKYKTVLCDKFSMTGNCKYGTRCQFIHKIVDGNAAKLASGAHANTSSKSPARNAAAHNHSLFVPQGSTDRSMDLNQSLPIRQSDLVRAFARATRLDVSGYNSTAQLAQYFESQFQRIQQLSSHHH

[23] = molecular target: 26S proteasome non-ATPase regulatory subunit 14 (Homo sapiens, UniProt O00487); experiment: inhibition of proteasome subunit RPN11 – biochemical, fluorescence polarization, uHTS hits, confirmation (AID 602368); type: functional
[24] = molecular target: 72 kDa type IV collagenase (Homo sapiens, UniProt P08253); experiment: Dose Response validation of uHTS RPN11 inhibitor hits using a MMP-2 Fluorescence assay.; type: functional
Prothrombin = Prothrombin (Bos taurus, UniProt P00735); experiment: thrombin protease inhibitors – biochemical, fluorescence polarization, uHTS hits, dose response (AID 602369); type: functional
Albumin = Albumin (Bos taurus, UniProt P02769); experiment: Counterscreen for inhibitors of T-cell receptor (TCR)-CD3 interaction: Fluorescence-based biochemical high throughput dose response assay to identify inhibitors of T-cell receptor (TCR)-CD3 interaction using a TAMRA-labeled BSA probe.; type: functional

Compound: O=C(Nc1cccc2ccccc12)N1CCc2ccccc2C1
- IC50 (cells [1]): > 29.9 µM (inactive)
- EC50 [2]: 0.266 µM (active)
- IC50 [3]: 9.86 µM (active)
- EC50 (cells [4]): > 29.9 µM (inactive)
- IC50 [5]: > 9.99 µM (inactive)

Compound: CCOc1ccc(-[n+]2c(-c3ccccc3)cn3c2CCCCC3)cc1
- EC50 [6]: > 150 µM (inactive)
- EC50 [7]: 16.3 µM (active)
- EC50 [8]: 0.534 µM (active)
- EC50 [9]: 7 µM (active)
- IC50 [10]: > 80 µM (inactive)
- AC50 (INS1): 0.822 µM (active)
- IC50 [11]: 8.69 µM (active)

Compound: COc1ccccc1OCc1cc(C(=O)N(C)CCC2CCCCO2)no1 (centres undefined)
- IC50 (cells [12]): > 67.5 µM (inactive)
- IC50 [13]: > 67.5 µM (inactive)

Compound: CSc1nc(-c2cccs2)c(C#N)c(=O)[nH]1
- IC50 (Major prion protein): 3.22 µM (active)

Compound: CSc1nc(O)c(C#N)c(-c2cccs2)n1
- IC50 (cells [14]): > 138 µM (inactive)

Compound: COc1cc2c3nnc(-c4ccc(F)cc4)c-3cn(Cc3ccc(F)cc3)c2cc1OC
- EC50 [15]: 6.2 µM (active)
- EC50 [16]: 7.33 µM (active)
- IC50 [17]: > 20 µM (inactive)
- AC50 [18]: 26.3 µM (active)

Compound: COc1cccc(CN(C)C(=O)CNC(=O)c2ccc(-c3ccccc3)cc2)c1OC
- IC50 (Galanin receptor type 3): > 1.11 µM (active)
- EC50 (cells [19]): > 29.9 µM (inactive)

Compound: CCCCC(=O)Nc1ccc(C(=O)Nc2ccc(S(=O)(=O)N3CCCC3)cc2)cc1
- EC50 [20]: > 29.9 µM (inactive)
- IC50 [21]: > 29.9 µM (inactive)

Compound: O=C1NC(=O)N(CCc2ccccc2)C(=O)/C1=C/NNC(=O)c1ccccc1O
- EC50 [22]: 69.9 µM (active)
- IC50 [23]: 63.5 µM (active)
- IC50 [24]: > 100 µM (inactive)
- IC50 (Prothrombin): 47.2 µM (active)
- IC50 (Albumin): > 94 µM (inactive)
